Like-named read-outs stand apart in the source and are kept apart here.
How the values were obtained:
[1] = system: HSV-1; experiment: Herpes simplex virus plaque reduction assay in Vero34 cells; type: cell-based; details: Human alphaherpesvirus 1, 72 h, 3 days
Description: In 12 wells tissue culture dishes, 2×10^5 Vero34 cells were seeded in 2 mls of DMEM supplemented with 10% […]. The plate was incubated in 5% CO2/air at 37° C. overnight. The medium was removed and cells were inoculated with 200 PFU of HSV-1 diluted in a final volume of 0.5 ml DMEM supplemented with 2% FES. After adsorption at 37° C. for 1 hour, the viruses were removed and the cell monolayers were overlaid with 1 ml of DMEM-2% FES containing the test compound at final concentrations of 0.1, 1.0, 10, and 50 ug/ml. Acyclovir was used as a positive control. Uninfected and infected untreated monolayers were also included in the assay as controls. All compounds were tested in duplicates. After an incubation at 37° C. in 5% CO2/air for 3 days, cells were fixed with the addition of one volume of formaldehyde 8%/water for 30 min. The formaldehyde/medium was removed and the monolayers were stained with crystal violet 2%/ethanol 20% for few sec. The cells were rinsed with tap water and the monolayers were examined for the presence of plaques under a microscope.

[2] = system: Vero34 cells; type: cell-based; details: African green monkey, 48 h
Description: The CD50 value (cytotoxic dose at 50%) was assessed on virus-free control layers of cells to assess the toxicity of the compounds.
Flat bottom 96 well plates were plated with 5×1OE3 Vero-34 cells/well and 1×10E4 Hs-68 or Wi-38 cells/well respectively and incubated overnight at 37° C. and 5% CO2/air. After incubation, the supernatant medium was removed and replaced with test compound dilutions in 2% DMEM (150 ul). The cells were then incubated 48 hours in a 5% CO2 incubator at 37° C.
50 μl/well of 10 uCi/ml solution of [3H]-methyl thymidine (specific activity of approx. 2 Ci/mmol) was added to the culture medium and incubated overnight (18 hours) in a 5% CO2 incubator at 37° C.
Cells were then collected onto a fiberglass filter (Printed Filtermat A 1450-421 Wallac) with a Tomtec cell harvester. Suspended cells were collected directly onto filter while for adherent cells, the medium was first removed, then the cells washed with PBS and trypsinized for 2-3 minutes (50 μl trypsin/well) before collecting.
Filters were dried for 1 hour at 37-40° C. and then placed into bags (1450-microbeta #1450-432 Wallac) with 4.5 ml of Betascint and counts obtained with Microbeta 1450 Wallac (protocol 1).
(§1) The percent of cell proliferation was determined by comparison to the control (no test compound) and thereby establishing 50% inhibitory concentration is established.

[3] = system: Hs68 cells; experiment: Toxicity (CD50) reported with the CMV assay; type: cell-based, human; details: reported with HCMV assay
Description: Cells were then collected onto a fiberglass filter (Printed Filtermat A 1450-421 Wallac) with a Tomtec cell harvester.
as §1

[4] = system: HCMV; experiment: CMV plaque reduction assay in Hs68 cells; type: cell-based, human cytomegalovirus; details: 8 days, read-out: HCMV-1 IC50
Description: In 12-well tissue culture dishes, 1.5×10E5 or Hs68 cells (human […] fibroblast cell line) were plated per well with 2 ml of DMEM 10% fetal bovine serum and incubated in 5% CO2/air at 37° C. overnight or until cells were ready. The medium was then removed and the cells inoculated with 0.5 ml (containing 200 pfu/ml diluted in DMEM 2% FBS) of HCMV virus in each well. After adsorption at 37° C. for 2 hours, the virus was removed and cell monolayers were overlaid (1 ml) with DMEM 2% FBS containing test compounds at various concentrations. The cells were then incubated at 37° C. for 8 days, and then fixed with one volume (1 ml) of formaldehyde 8%/water or PBS 1× for 30 minutes. The formaldehyde solution was removed and the cell monolayers were stained with crystal violet 2%/EtOH 20% for a few seconds and then rinsed with water. Monolayers were examined for the presence of plaques under a microscope, the percentage of plaque reduction determined for each compound by comparison with the untreated cells (no test compound) and the 50% inhibitory concentration (IC50) established. DHPG was used as a positive control. Note: DMEM medium contained 1% glutamine and 1% pen/strep

[5] = system: RSV and CMV viruses; experiment: Case report: immune suppressed leukemia patient with RSV and CMV pneumonias in troxacitabine phase I study; type: in vivo, human; details: one elderly patient with relapsed resistant acute myeloid leukemia, also treated for RSV and CMV infections
Description: An elderly patient with relapsed resistant acute myeloid leukemia was entered in a troxacitabine (compound #1) as phase I Leukemia study. In the early part of the therapy, the patient, known to be immune suppressed, developed severe pneumonias. […] The patient to was maintained in the troxacitabine study and was treated for RSV and CMV viral infections.

| IC50 [1] | IC50 [4] | SMILES | toxicity CD50 [2] | toxicity CD50 [3] | IC50 ([4]; Human betaherpesvirus 5, 192 h) | Clinical outcome of viral pneumonias (RSV and CMV) [5] |
| --- | --- | --- | --- | --- | --- | --- |
| 13.3 µM |  | Nc1nc2c(ncn2COCCO)c(=O)[nH]1 [ACYCLOVIR, reference compound] | >13.3 µM |  |  |  |
| 47 to 234 µM |  | Nc1ncn([C@@H]2CO[C@H](CO)O2)c(=O)n1 [COMPOUND #3, (−)cis-2-Hydroxymethyl-4-(5′-azacytosin-1′-yl)-1,3-Dioxolane] |  |  |  |  |
|  | 9.8 µM | Nc1nc2c(ncn2COC(CO)CO)c(=O)[nH]1 [DHPG, reference compound] |  |  |  |  |

| SMILES | IC50 [1] | IC50 [4] | toxicity CD50 [2] | toxicity CD50 [3] | IC50 ([4]; Human betaherpesvirus 5, 192 h) | Clinical outcome of viral pneumonias (RSV and CMV) [5] |
| --- | --- | --- | --- | --- | --- | --- |
| Nc1ccn([C@@H]2CO[C@H](CO)O2)c(=O)n1 [COMPOUND #1, (−)-cis-2-Hydroxymethyl-4-(cytosin-1′-yl)-1,3-dioxolane] | 1.7 µM |  | >50 µM | >50 µM | 0.7 µM | did recover from their pneumonias |
